Measurements reported in article PMC5608353 (PLoS ONE, 2017).
Values after ≈ are worked out from the molar mass of the structure shown. Like-named read-outs stand apart in the source and are kept apart here.

Key:
[1] = system: C. perfringens JZ10
[2] = system: human erythrocytes, epidermal keratinocytes, A549 cells, murine L929 fibroblasts, porcine intestinal epithelial cell line ZYMSIEC02; conditions: cited from earlier work
[3] = system: C. perfringens JC2
[4] = system: C. perfringens CVCC 46
[5] = system: C. perfringens JT1
[6] = system: C. perfringens CVCC 46; test: microbe, parasite or virus in culture; conditions: Clostridium perfringens, CVCC46, read-out: MICa (MIC of drug used alone)
[7] = system: C. perfringens CVCC 51; test: microbe, parasite or virus in culture; conditions: Clostridium perfringens, CVCC51, 18 h
[8] = system: C. perfringens JT1; test: microbe, parasite or virus in culture; conditions: Clostridium perfringens, JT1, 18 h
[9] = system: C. perfringens JC2; test: microbe, parasite or virus in culture; conditions: Clostridium perfringens, JC2, 18 h
[10] = system: C. perfringens CVCC 1137; test: microbe, parasite or virus in culture; conditions: Clostridium perfringens, CVCC1137, 18 h
[11] = system: C. perfringens CVCC 46; type: cell-based, Clostridium perfringens type A
[12] = system: C. perfringens JZ10; test: microbe, parasite or virus in culture; conditions: Clostridium perfringens, JZ10, 18 h
[13] = system: C. perfringens CVCC 46; conditions: for MICa (MIC of drug used alone): chequerboard, triplicate
[14] = system: C. perfringens CVCC 46; test: microbe, parasite or virus in culture; conditions: Clostridium perfringens, CVCC46, 18 h
[15] = system: C. perfringens CVCC 51; conditions: CVCC 51; broth microdilution, anaerobic 37°C, 12~18 h
[16] = system: C. perfringens CVCC 1137; conditions: CVCC 1137; broth microdilution, anaerobic 37°C, 12~18 h
[17] = JZ10, broth microdilution, anaerobic 37°C, 12~18 h
[18] = JC2, broth microdilution, anaerobic 37°C, 12~18 h
[19] = CVCC 46, broth microdilution, 1×10^5 CFU/mL, anaerobic 37°C, 12~18 h, triplicate
[20] = CVCC 46, broth microdilution, anaerobic 37°C, 12~18 h, triplicate
[21] = CVCC 46, 2×MIC, 1×10^5 CFU/mL, 37°C, colony counts
[22] = JT1, broth microdilution, anaerobic 37°C, 12~18 h

In the case of CC[C@H](C)[C@@H]1NC(=O)[C@H](CO)NC(=O)[C@H](CCCCN)NC(=O)[C@@H]2CSSC[C@@H](C(=O)N[C@@H](Cc3ccc(O)cc3)C(=O)O)NC(=O)[C@H](CCCCN)NC(=O)[C@@H]3CSSC[C@H](NC(=O)[C@H](CCC(N)=O)NC(=O)[C@H](CCSC)NC(=O)[C@H](CC(=O)O)NC(=O)[C@H](CC(=O)O)NC(=O)[C@H](CCC(=O)O)NC(=O)[C@H](CC(=O)O)NC(=O)[C@H](Cc4c[nH]c5ccccc45)NC(=O)[C@@H]4CCCN4C(=O)CNC(=O)[C@H](CC(N)=O)NC(=O)[C@@H](NC(=O)CNC(=O)[C@H](Cc4ccccc4)NC(=O)CN)CSSC[C@H](NC(=O)[C@H](Cc4ccc(O)cc4)NC(=O)CNC(=O)CNC(=O)[C@H](CCCCN)NC(=O)[C@H](Cc4ccc(O)cc4)NC(=O)CNC(=O)[C@H](CCCCN)NC1=O)C(=O)N[C@@H](C)C(=O)N[C@@H](CCCCN)C(=O)NCC(=O)NCC(=O)N[C@@H](Cc1ccccc1)C(=O)N[C@@H](C(C)C)C(=O)N3)C(=O)N[C@@H](Cc1c[nH]cn1)C(=O)N[C@@H](CC(N)=O)C(=O)N[C@@H](Cc1c[nH]cn1)C(=O)N2 [Plectasin], the MIC ([1]; JZ10, 18 h) is listed as >14.5 µM, the Hemolysis / cytotoxicity [2] is listed as “non-hemolytic or non-cytotoxic” and the MIC ([3]; JC2, 18 h) is listed as >14.5 µM. The MBC ([4]; CVCC 46, 18 h) was 1.81 µM (≈ 7.97 µg/mL), the MIC ([4]; CVCC 46, 18 h) was 1.81 µM (≈ 7.97 µg/mL) and the MIC ([5]; JT1, 18 h) was 0.23 µM (≈ 1.01 µg/mL).

For CN[C@H](CC(C)C)C(=O)N[C@H]1C(=O)N[C@@H](CC(N)=O)C(=O)N[C@H]2C(=O)N[C@H]3C(=O)N[C@H](C(=O)N[C@H](C(=O)O)c4cc(O)cc(O)c4-c4cc3ccc4O)[C@H](O)c3ccc(c(Cl)c3)Oc3cc2cc(c3O[C@@H]2O[C@H](CO)[C@@H](O)[C@H](O)[C@H]2O[C@H]2C[C@](C)(N)[C@H](O)[C@H](C)O2)Oc2ccc(cc2Cl)[C@H]1O [Vancomycin], the MIC [6] was 0.69 µM, the MIC [7] was 0.69 µM (≈ 1 µg/mL) and the MIC [8] was 0.69 µM (≈ 1 µg/mL). For the same compound, the MIC [9] was 22.1 µM (≈ 32 µg/mL), the MIC [10] was 0.69 µM (≈ 1 µg/mL) and the “Time to 99.9% reduction of bacterial counts” value (“Time to 99.9% reduction” below) [11] was 8 h. The MIC [12] was 22.1 µM (≈ 32 µg/mL), the FIC [13] was 0.5 and the “MICC (MIC of drug used in combination)” value [13] was 0.345 µM. For the same compound, the MBC [14] was 0.69 µM (≈ 1 µg/mL) and the MIC [14] was 0.69 µM (≈ 1 µg/mL).

For Bacitracin zinc, the MIC [15] was 1.35 µM, the MIC [1, 17] was >86.1 µM and the MIC [16] was 1.35 µM. For the same compound, the MIC [3, 18] was >86.1 µM, the MIC [4, 19] was 0.67 µM and the MBC [4, 20] was 1.34 µM. For the same compound, the “Time to 99.9% reduction” value [11, 21] was 8 h, the “MICa (MIC of drug used alone)” value ([13]; CVCC 46) was 0.67 µM and the FIC ([13]; combination Bacitracin zinc-MP1102, MIC in combination / MIC alone) was 0.5. For the same compound, the FIC ([13]; combination Bacitracin zinc-NZ2114, MIC in combination / MIC alone) was 0.25 and the MIC [5, 22] was 0.67 µM.

Virginiamycin showed an MIC [15] of 0.24 µM, an MIC [1, 17] of 121.8 µM and an MIC [16] of 0.48 µM. The MIC [3, 18] was 60.9 µM, the MIC [4, 19] was 0.96 µM and the MBC [4, 20] was 0.96 µM. The “Time to 99.9% reduction” value [11, 21] was 2~4 h, the “MICa (MIC of drug used alone)” value ([13]; CVCC 46) was 0.96 µM and the “MICC (MIC of drug used in combination)” value ([13]; combination Virginiamycin-MP1102, CVCC 46) was 0.12 µM. For the same compound, the FIC ([13]; combination Virginiamycin-MP1102, MIC in combination / MIC alone) was 0.125, the “MICC (MIC of drug used in combination)” value ([13]; combination Virginiamycin-NZ2114, CVCC 46) was 0.48 µM and the FIC ([13]; combination Virginiamycin-NZ2114, MIC in combination / MIC alone) was 0.5. The MIC [5, 22] was 0.46 µM.
